PubChem BioAssay (NCI)
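How tested: cells in 96-well plates exposed to compound for 48 hours at five concentrations. The concentration for 50% growth inhibition is given as GI50. At the TGI there is no net growth.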

Key:
Test in all cases: growth of human tumour cells (NCI), 48 h
786-0 renal = test system: 786-0 renal
A549 NSCLC = test system: A549 NSCLC
HT29 colon = test system: HT29 colon
NCI-H522 lung = test system: NCI-H522 lung
NCI/ADR-RES ovarian = test system: NCI/ADR-RES ovarian
RPMI-8226 leukemia = test system: RPMI-8226 leukemia
SK-MEL-2 melanoma = test system: SK-MEL-2 melanoma
SK-MEL-5 melanoma = test system: SK-MEL-5 melanoma
SN12C renal = test system: SN12C renal
HOP-92 NSCLC = test system: HOP-92 NSCLC

Compound	TGI (786-0 renal) [µM]	TGI (A549 NSCLC) [µM]	TGI (HT29 colon) [µM]	TGI (NCI-H522 lung) [µM]	TGI (NCI/ADR-RES ovarian) [µM]	TGI (RPMI-8226 leukemia) [µM]	TGI (SK-MEL-2 melanoma) [µM]	TGI (SK-MEL-5 melanoma) [µM]	TGI (SN12C renal) [µM]	TGI (HOP-92 NSCLC) [µM]	GI50 (786-0 renal) [µM]	GI50 (A549 NSCLC) [µM]	GI50 (HOP-92 NSCLC) [µM]	GI50 (HT29 colon) [µM]	GI50 (NCI-H522 lung) [µM]	GI50 (RPMI-8226 leukemia) [µM]	GI50 (SK-MEL-2 melanoma) [µM]	GI50 (SK-MEL-5 melanoma) [µM]	GI50 (SN12C renal) [µM]	GI50 (NCI/ADR-RES ovarian) [µM]
CS(=O)(=O)OCC1OC(n2ccc(NC(=O)c3ccccc3)nc2=O)CC1OS(C)(=O)=O (centres undefined)	> 100	> 100	> 100	> 100	> 100	> 100	> 100	> 100	> 100											
CC1(Cl)CC2OC3(Br)C=CC(C)(O)C2(CC1Br)C3(C)C (centres undefined)	> 100	> 100	> 100			> 100	> 100	> 100	> 100	> 100										
CC(=O)Oc1cc(C)c2c(c1OC(C)=O)CC1(O2)[C@@H](C)CCC2[C@@]3(C)CC[C@H](OC(C)=O)C(C)(C)C3CC[C@]21C (some centres undefined)	7.46	33.2	19.6			> 100		10.7	11.8	8.01										
Nc1nc2sc3ccccc3c(=O)n2n1	> 100	> 100	> 100			> 100	> 100	> 100	> 100	> 100										
CC(=O)N1c2ccccc2C2=CC3C4C(=O)N(c5ccccc5)C(=O)C4C21C1C(=O)N(c2ccccc2)C(=O)C31 (centres undefined)	> 100	> 100	> 100				56.2		> 100	> 100										
Cc1noc2cccc(OCc3ccccc3)c12	> 100	> 100	> 100	> 100		> 100	94.5	41.5	> 100	> 100										
CCOC(=O)/C(=N\OC)C(O)C(F)(F)F (centres undefined)	> 100	> 100	> 100	> 100	> 100	> 100	> 100	> 100	> 100											
O=c1ccc(N=Nc2ccc([N+](=O)[O-])cc2)ccc1O	> 100	> 100	> 100	28.3		> 100	73.6	> 100	> 100	> 100	5.99	6.8	4.9	5.71	3.42	3.15	9.33	6.55	3.61	
O=S(=O)(N/N=C/c1ccc(Cl)c(Cl)c1)c1ccccc1	> 100	> 100	> 100			> 100	> 100	> 100	> 100	48.6										
Cc1cc(Cl)cc2c(N=Nc3ccccc3[N+](=O)[O-])c(O)[nH]c12	> 100	> 100		> 100		> 100	> 100	> 100	> 100	> 100										
O=[N+]([O-])c1ccccc1N=Nc1c(O)[nH]c2ccc(Br)cc12	40.4	21	29.3	> 34.8	40.6	> 68.6	54.1	> 37.7	44.8											
COC(c1cccc(C(O)(C(F)(F)F)C(F)(F)F)c1)(C(F)(F)F)C(F)(F)F	31.8	31.2	31.6	26.5			33.7		32.2											
CCOC(=O)N1C2C=C(C)C(ON2C(=O)c2ccccc2)C2C(C)C(=O)N21 (centres undefined)	> 100	> 100	> 100			> 100	> 100	> 100	> 100	> 100										
Cn1cc(C2=C(c3cn(CCO)c4ccccc34)C(=O)NC2=O)c2ccccc21	> 25	> 25	> 14.9	10.8	> 22	16	8.37	9.67	> 25		5.01	3.05		1.5	1.64	5.33	1.65	2.55	4.75	5.6
N#CC(/C(=N/NC(=O)C(=O)NN)C(=O)Nc1nc([N+](=O)[O-])cs1)c1ccc(Cl)cc1 (centres undefined)	> 100	> 100	> 100			> 100	> 100	> 100	> 100	> 100										
Cc1ccccc1C1=[N+]([O-])c2ccccc2C1=O	31.3		27.7	29		> 100	21.2	30.9	32.1	62.5										

Compound	TGI (786-0 renal) [µM]	TGI (A549 NSCLC) [µM]	TGI (HT29 colon) [µM]	TGI (NCI-H522 lung) [µM]	TGI (NCI/ADR-RES ovarian) [µM]	TGI (RPMI-8226 leukemia) [µM]	TGI (SK-MEL-2 melanoma) [µM]	TGI (SK-MEL-5 melanoma) [µM]	TGI (SN12C renal) [µM]	TGI (HOP-92 NSCLC) [µM]	GI50 (786-0 renal) [µM]	GI50 (A549 NSCLC) [µM]	GI50 (HOP-92 NSCLC) [µM]	GI50 (HT29 colon) [µM]	GI50 (NCI-H522 lung) [µM]	GI50 (RPMI-8226 leukemia) [µM]	GI50 (SK-MEL-2 melanoma) [µM]	GI50 (SK-MEL-5 melanoma) [µM]	GI50 (SN12C renal) [µM]	GI50 (NCI/ADR-RES ovarian) [µM]
COc1ccc2c(c1)C(=O)N1CCOC1C2C(=O)O (centres undefined)	> 100	> 100	> 100	> 100		> 100		> 100	> 100	> 100										
O=C(C=Nc1ccccc1C(=O)[O-])c1cccs1.O=C(C=Nc1ccccc1C(=O)[O-])c1cccs1.[Co+2]	> 100	> 100	> 100	> 100			> 100		> 100	> 100										
C=C(C)C1Cc2c(cc(OC)c3c(=O)c4cccc(O)c4oc23)O1 (centres undefined)	32.9	88.8	> 100	33.8	> 100		42.4	30.1	76.7											
CCCCCCCC(=O)NCC(O)CNC(=O)CCCCCCC	> 100	> 100	> 100	> 100		> 100		> 100	> 100	> 100										
O=C(O)C1=CCCc2ccc3ccccc3c21	> 100	> 100	> 100	> 100		> 100	> 100		> 100	> 100										
COc1cccc(C2C3=C(COC3=O)N(CCO)c3cc(OC)ccc32)c1 (centres undefined)	> 29.6	> 100	2.9	1.44		> 100		1.97	> 100		0.148	0.12		0.0743	0.0307	0.271	0.536	0.0474	0.493	0.0908
O=C(Nc1ccccc1)c1nn(-c2cc(S(=O)(=O)O)c([N+](=O)[O-])cc2Cl)[n+](-c2cc(S(=O)(=O)[O-])c([N+](=O)[O-])cc2Cl)n1	> 100	> 100	> 100	> 100	> 100	> 100	> 100	> 100	> 100											
CSc1cccc(-n2c3nc(=O)n(C)c(=O)c-3nc3ccccc32)c1	33.4	16.2	15.9	28.3		26.2	31.1	3.02	17.9	25.3										
CCN(CC)CCCn1cnc2ncccc2c1=O	> 100	> 100	> 100	> 100			> 100	> 100	> 100	> 100										
COC(=O)C1=C(C)NC(C)=C(C(=O)OC)C1/C=C(\Cl)c1ccc(Cl)c(Cl)c1	30.8	24.4	18.5	32.4	30.8	13.7		28.5	27.5		17	11.9		4.51	16.6	1.8		15.2	14	16.4
O=C(CCC(=O)Nc1cccc(Cl)c1)CC(=O)c1ccc(F)cc1	> 100	> 100	> 100	> 100		> 100	> 100		> 100	> 100										
COc1cc(-c2nc3sccn3c2-c2ccnc(NCCNS(=O)(=O)c3ccc(Cl)cc3)n2)ccc1F	> 100	> 100	> 100	> 100	> 100		35.3	4.19	> 100		7.77	3.86		4.28	2.59		3.46	1.87	4.11	2.89
[Cl][Sn]([Cl])([c]1ccccc1)[c]1ccccc1	16.7	39.2	30.5			18	14.1	26.9	28.2	6.36	4.8	19.8	3.02	16.1		2.71	4	12.2	14.9	
CN(C)CCN(C)CC1COC(C)(C)O1 (centres undefined)	> 100	> 100	> 100	> 100		> 100	> 100	> 100	> 100	> 100										
C/C(=N\NC(N)=S)c1cc(C)c(C)cc1C	> 100	> 100	47.6			> 100	> 100	> 100	> 100	> 100										
Cc1oc2c(C)c3oc(=O)cc(C)c3cc2c1CNC(=O)[C@@H]1OCCOCCOCCOCCOCCOC1C(=O)O (some centres undefined)	45	> 100	> 100	> 100		> 100		> 100	> 100	> 100										
